Results published in patent US4977184A, “Bicyclic peroxides compositions for and treatment of malaria therewith” (Hoffmann-La Roche Inc., priority 1987, dated 1990).

Tested on: not listed separately
Experiment: Toxicity, single oral administration to mice
Conditions: mouse, in vivo, p.o., no toxic symptoms at the dosage indicated, read-out: Toxicity, Dosage (no toxic symptoms observed at this amount)
From the text: The results which have been obtained with representative members of the class of substance defined by formula I in the previously described experiment are compiled in the following Table. Moreover, the Table contains data concerning the toxicity of some of these compounds.
`CCCCCCCCCCC[C@@]1(C)OO[C@@H]2C[C@H]1CC(=O)[C@@H]2C` [(CH2)10CH3 (1R, 4R, 5S, 8R), (1R,4R,5S,8R)-4,8-dimethyl-4-undecyl-2,3-dioxabicyclo[3.3.1]nonan-7-one] showed an NOAEL of 3000 mg/kg. `CCCCCCCCCCC[C@]1(C)OO[C@@H]2C[C@H]1CC(=O)[C@@H]2C` [(CH2)10CH3 (1R, 4S, 5S, 8R), (1R,4S,5S,8R)-4,8-dimethyl-4-undecyl-2,3-dioxabicyclo[3.3.1]nonan-7-one] showed an NOAEL of 3000 mg/kg. `C[C@H]1C(=O)C[C@@H]2C[C@H]1OO[C@]2(C)/C=C\c1cc(C(F)(F)F)nc2cc(C(F)(F)F)ccc12` [drawing 9] gave an NOAEL of 6000 mg/kg.

Tested on: Plasmodium berghey
Experiment: Blood schizontocidal activity in infected mice (ED50, s.c., four-fold administration)
Type: in vivo, Plasmodium berghey; male albino mice
Conditions: mice infected with Plasmodium berghey, first 3 h after infection and on three subsequent days, smears D+4
Protocol: They have a pronounced blood schizontocidal activity. The activity of the substances in accordance with the invention can be determined, for example, in the animal experiment described hereinafter: Male albino mice weighing 18-20 g are used as the experimental animals. They are kept in climatized rooms at 22°-23° C. in groups of 5 animals per cage. They receive ad libitum a diet feed with low PABA content and drinking water. On the first day of the experiment (DO) the experimental animals are infected with Plasmodium berghey by intravenously injecting into each of the experimental animals 0.2 ml of heparinized blood of infected donor mice. The donor blood is diluted so that it contains 10^7 parasitized erythrocytes per 0.2 ml. In untreated control animals the parasitemia normally reaches 70-80% on the fourth day after the infection (D+4) and the experimental animals die between days +5 to +8. The substances to be tested are dissolved or suspended in distilled water or in a mixture of Tween 80, alcohol (96%) and water. Generally, in each case 0.5 ml of this solution or suspension is administered subcutaneously to groups of 5 experimental animals. The treatment is effected for the first time 3 hours after the infection as well as on the three subsequent days. Suitable dilutions of the test compounds are used for the titration of the activity. Per experiment 10 animals are treated in the same manner with the solution or suspension medium. 24 hours after the last treatment (D+4) blood smears with blood from tail veins are prepared from all animals and stained with giemsa. The average erythrocyte infection rate (parasitemia in %) in the control group as well as in the groups which have been treated with the compounds to be tested is determined by counting under the microscope. The difference in the average value of the infection rate between control group (100%) and the treated groups is calculated and expressed as the percentage reduction. The ED50 is determined mathematically from the results obtained. The ED50 in mg/kg is that dosage which, after four-fold administration, reduces to 50% the average erythrocyte infection rate in comparison to the control group. The results which have been obtained with representative members of the class of substance defined by formula I in the previously described experiment are compiled in the following Table. Moreover, the Table contains data concerning the toxicity of some of these compounds.
With `CCCCCCCC[C@@]1(C)OO[C@@H]2C[C@H]1CC(=O)[C@@H]2C` [(CH2)7CH3 (1R, 4R, 5S, 8R), (1R,4R,5S,8R)-4,8-dimethyl-4-octyl-2,3-dioxabicyclo[3.3.1]nonan-7-one] the “Activity ED50 (dosage which, after four-fold administration, reduces to 50% the average erythrocyte infection rate versus control)” value was 6.4 mg/kg. For `CCCCCCCC[C@]1(C)OO[C@@H]2C[C@H]1CC(=O)[C@@H]2C` [(CH2)7CH3 (1R, 4S, 5S, 8R), (1R,4S,5S,8R)-4,8-dimethyl-4-octyl-2,3-dioxabicyclo[3.3.1]nonan-7-one], the “Activity ED50 (dosage which, after four-fold administration, reduces to 50% the average erythrocyte infection rate versus control)” value was 5.2 mg/kg. With `CCCCCCCCC[C@@]1(C)OO[C@@H]2C[C@H]1CC(=O)[C@@H]2C` [(CH2)8CH3 (1R, 4R, 5S, 8R), (1R,4R,5S,8R)-4.8-dimethyl-4-nonyl-2,3-dioxabicyclo[3.3.1]nonan-7-one] the “Activity ED50 (dosage which, after four-fold administration, reduces to 50% the average erythrocyte infection rate versus control)” value was 3.6 mg/kg. With `CCCCCCCCC[C@]1(C)OO[C@@H]2C[C@H]1CC(=O)[C@@H]2C` [(CH2)8CH3 (1R, 4S, 5S, 8R), (1R,4S,5S,8R)-4,8-dimethyl-4-nonyl-2,3-dioxabicyclo[3.3.1]nonan-7-one] the “Activity ED50 (dosage which, after four-fold administration, reduces to 50% the average erythrocyte infection rate versus control)” value was 6.0 mg/kg. For `CCCCCCCCCC[C@@]1(C)OO[C@@H]2C[C@H]1CC(=O)[C@@H]2C` [(CH2)9CH3 (1R, 4R, 5S, 8R), (1R,4R,5S,8R)-4-decyl-4,8-dimethyl-2,3-dioxabicyclo[3.3.1]nonan-7-one], the “Activity ED50 (dosage which, after four-fold administration, reduces to 50% the average erythrocyte infection rate versus control)” value was 5.2 mg/kg. With `CCCCCCCCCC[C@]1(C)OO[C@@H]2C[C@H]1CC(=O)[C@@H]2C` [(CH2)9CH3 (1R, 4S, 5S, 8R), (1R,4S,5S,8R)-4-decyl-4,8-dimethyl-2,3-dioxabicyclo[3.3.1]-nonan-7-one] the “Activity ED50 (dosage which, after four-fold administration, reduces to 50% the average erythrocyte infection rate versus control)” value was 3.4 mg/kg. With `CCCCCCCCCCC[C@@]1(C)OO[C@@H]2C[C@H]1CC(=O)[C@@H]2C` [(CH2)10CH3 (1R, 4R, 5S, 8R), (1R,4R,5S,8R)-4,8-dimethyl-4-undecyl-2,3-dioxabicyclo[3.3.1]nonan-7-one] the “Activity ED50 (dosage which, after four-fold administration, reduces to 50% the average erythrocyte infection rate versus control)” value was 5.2 mg/kg. For `CCCCCCCCCCC[C@]1(C)OO[C@@H]2C[C@H]1CC(=O)[C@@H]2C` [(CH2)10CH3 (1R, 4S, 5S, 8R), (1R,4S,5S,8R)-4,8-dimethyl-4-undecyl-2,3-dioxabicyclo[3.3.1]nonan-7-one], the “Activity ED50 (dosage which, after four-fold administration, reduces to 50% the average erythrocyte infection rate versus control)” value was 3.4 mg/kg. In the case of `CCCCCCCCCCC[C@@]1(C)OO[C@H]2C[C@@H]1CC(=O)[C@H]2C` [(CH2)10CH3 (1S, 4R, 5R, 8S), (1S,4R,5R,8S)-4,8-dimethyl-4-undecyl-2,3-dioxabicyclo[3.3.1]nonan-7-one], the “Activity ED50 (dosage which, after four-fold administration, reduces to 50% the average erythrocyte infection rate versus control)” value is reported as 4.6 mg/kg. In the case of `CCCCCCCCCCC[C@]1(C)OO[C@H]2C[C@@H]1CC(=O)[C@H]2C` [(CH2)10CH3 (1S, 4S, 5R, 8S), (1S,4S,5R,8S)-4,8-dimethyl-4-undecyl-2,3-dioxabicyclo[3.3.1]nonan-7-one], the “Activity ED50 (dosage which, after four-fold administration, reduces to 50% the average erythrocyte infection rate versus control)” value is reported as 5.9 mg/kg. With `CCCCCCCC/C=C/[C@]1(C)OO[C@@H]2C[C@H]1CC(=O)[C@@H]2C` [CHCH(CH2)7CH3 (1R, 4R, 5S, 8R), (1R,4R,5S,8R)-4-[(E)-1-decenyl]-4.8-dimethyl-2,3-dioxabicyclo[3.3.1]nonan-7-one] the “Activity ED50 (dosage which, after four-fold administration, reduces to 50% the average erythrocyte infection rate versus control)” value was 6.2 mg/kg. For `CCCCCCCC/C=C/[C@@]1(C)OO[C@@H]2C[C@H]1CC(=O)[C@@H]2C` [CHCH(CH2)7CH3 (1R, 4S, 5S, 8R), (1R,4S,5S,8R)-4-[(E)-1-decenyl]-4,8-dimethyl-2,3-dioxabicyclo[3.3.1]nonan-7-one], the “Activity ED50 (dosage which, after four-fold administration, reduces to 50% the average erythrocyte infection rate versus control)” value was 4.5 mg/kg. In the case of `C[C@H]1C(=O)C[C@@H]2C[C@H]1OO[C@]2(C)/C=C\c1cc(C(F)(F)F)nc2cc(C(F)(F)F)ccc12` [drawing 9 (1R, 4S, 5S, 8R)], the “Activity ED50 (dosage which, after four-fold administration, reduces to 50% the average erythrocyte infection rate versus control)” value is reported as 6.2 mg/kg. In the case of `C[C@@H]1C(=O)C[C@H]2C[C@@H]1OO[C@@]2(C)/C=C\c1cc(C(F)(F)F)nc2cc(C(F)(F)F)ccc12` [drawing 9 (1S, 4R, 5R, 8S)], the “Activity ED50 (dosage which, after four-fold administration, reduces to 50% the average erythrocyte infection rate versus control)” value is reported as 5.4 mg/kg. For `C[C@@H]1C(=O)C[C@H]2C[C@@H]1OO[C@@]2(C)/C=C\c1ccc(Cl)cc1Cl` [drawing 10 (1S, 4R, 5R, 8S)], the “Activity ED50 (dosage which, after four-fold administration, reduces to 50% the average erythrocyte infection rate versus control)” value was 4.6 mg/kg.
